According to patent US6201116A, “Halide indicators” (The Regents of the University of California, priority 1999, dated 2001):

Key:
cells [1] = experiment: Chemical stability in cells (thin layer chromatography of lysates); assay type: cell-based; details: TLC of lysates from loaded cells
Procedure: LZQ and LMQ were loaded into cells efficiently by hypotonic shock or passive incubation. […] As was found for SPQ, LZQ and LMQ were non-toxic to cells in assays of cell growth (2 mM in culture medium for 72 h).

cells [2] = experiment: Time-resolved anisotropy in cells; assay type: cell-based
Procedure: (§1) Time resolved fluorescence measurements. Fluorescence lifetime and anisotropy decay measurements were carried out in the frequency domain by cuvette fluorimetry using a Fourier transform fluorimeter (48000 MHF, SLM Instruments, Urbana, Ill.) or by fluorescence microscopy using epifluorescence microscope optics in place of the cuvette compartment (Verkman et al., 1991). For microscopy measurements, impulse-modulated vertically polarized light (442 nm, He--Cd laser 35 mwatts) was reflected onto the sample by a 510 nm dichroic mirror and objective lens; emitted fluorescence was filtered by a 515 nm barrier filter and passed through a rotatable analyzing calcite polarizer. In some experiments, a biconcave lens was introduced just in front of the dichroic mirror to diverge beam diameter in the focal plane to ~40 mm.
Analysis of lifetime and time-resolved anisotropy was performed by a comparative approach. Generally six pairs of measurements (each acquisition 8 s) were obtained, comparing sample and reference (fluorescein in 0.1 N NaOH, lifetime 4.0 ns) for measurement of lifetime, and parallel and perpendicular orientations of the emission polarizer for measurement of anisotropy decay. The phase-modulation data consisted of phase angles and modulation ratios at 40 discrete, equally spaced modulation frequencies (5-200 MHz). The analyzing polarizer was positioned at the magic angle for lifetime measurements. Additional details of the data acquisition and analysis routines were described previously (Verkman et al., 1991). Median phase and modulation values for paired data were analyzed by nonlinear least-squares for determination of lifetimes and rotational correlation times.
Time-resolved anisotropy was measured to quantify intracellular LZQ binding. In water, LZQ rotated freely with a single-component rotational correlation time of 121±3 ps (n=3). For LZQ in cells, a plot of differential phase and modulation amplitude ratio indicated a two-component anisotropy decay model with a major component (fractional amplitude 0.90-0.94) of 144±10 ps, similar to that in water.

[3] = Fluorescence spectra / optical properties; assay type: physicochemical; parameters: key to Brightness: ++++: very bright; +++: bright; ++: moderate brightness; +: weak
Procedure: Computations. In vitro fluorescence quenching studies were carried out at peak excitation and emission wavelengths. Microliter aliquots of the sodium salt of the quenching anion (1 M) were added to indicator solution in 5 mM sodium phosphate (pH 7.2, unless indicated otherwise). Fluorescence intensities in the absence (Fo) and presence (F) of quencher anion ([Q]) were measured to give the Stem-Volmer constant (Kq) as defined by:
Fluorescence spectra reveal that LZQ and LMQ have broad excitation and emission peaks with maxima at 424 and 528 nm, respectively. The molar extinction coefficient of LZQ was 11,100 M^-1 cm^-1 at 424 nm and the quantum yield in the absence of I^- was 0.53. Stem-Volmer plots for quenching of LZQ and LMQ by I^- and Cl^-, with data for SPQ shown for comparison, were generated. In water (or saline), LZQ fluorescence was quenched by I^- with a Stem-Volmer constant of 60 M^-1. LZQ fluorescence was not quenched (Stem-Volmer constant <1 M^-1) by Cl^-, NO3^-, phosphate, acetate, Na^+ and K^+. LZQ fluorescence and I^- sensitivity were not affected by pH changes in the range 4.5-8.

[4] = Fluorescence lifetime in water; assay type: physicochemical
Procedure: as §1
(§2) Analysis of lifetime and time-resolved anisotropy was performed by a comparative approach. Generally six pairs of measurements (each acquisition 8 s) were obtained, comparing sample and reference (fluorescein in 0.1 N NaOH, lifetime 4.0 ns) for measurement of lifetime, and parallel and perpendicular orientations of the emission polarizer for measurement of anisotropy decay. […] Median phase and modulation values for paired data were analyzed by nonlinear least-squares for determination of lifetimes and rotational correlation times.

[5] = Time-resolved anisotropy in water; assay type: physicochemical; details: single-component, n=3
Procedure: as §1, §2

[6] = Stopped-flow response to addition and removal of I^-; assay type: physicochemical
cells [7] = experiment: Fluorescence lifetime in cells (frequency-domain microfluorimetry); assay type: cell-based
Procedure: as §1, with “In some experiments, a biconcave lens was introduced just in front of the dichroic mirror to diverge beam diameter in the focal plane to ~40 mm.” left out
Analysis of lifetime and time-resolved anisotropy was performed by a comparative approach. […] Median phase and modulation values for paired data were analyzed by nonlinear least-squares for determination of lifetimes and rotational correlation times.
A calibration study was done to determine the intracellular sensitivity of LZQ to I^-. […] LZQ fluorescence changed reversibly in response to changes in solution I^-. […] Fluorescence lifetime analysis was done to determine whether LZQ fluorescence is quenched in cells by substances other than I^-. Nanosecond lifetimes were measured by frequency-domain microfluorimetry. […]

Structure (SMILES): [O-]c1nc2c(N[C@@H]3O[C@H](CO)[C@@H](O)[C@H]3O)ncnc2[n+]2ccccc12 [I, 4-(β-D-ribofuranosylamino)-pyrido [2,1-h] pteridin-11-ium-5-olate]
- chemical stability in cells (cells [1]): remained chemically stable in cells
- binding to intracellular components (cells [2]): negligible binding
- fractional amplitude of major component (cells [2]; in cells): 0.90-0.94
- rotational correlation time, major component (cells [2]; in cells, two-component model): 144±10 ps
- emission maximum [3]: 528 nm
- excitation maximum [3]: 424 nm
- Brightness ([3]; Table 4): +++
- λem (emission wavelength) ([3]; Table 4): 528 nm
- λex (excitation wavelength) ([3]; Table 4): 424 nm
- molar extinction coefficient ([3]; at 424 nm): 11,100 M^-1 cm^-1
- quantum yield ([3]; in the absence of I^-): 0.53
- effect of pH on fluorescence ([3]; pH 4.5-8): not affected
- fluorescence lifetime ([4]; in water, absence of I^-): 7.1 ns
- quenching mechanism (lifetime decrease with [I^-]) ([4]; increasing [I^-]): collisional mechanism
- rotational correlation time [5]: 121±3 ps
- response time to rapid addition and removal of I^- [6]: < 1 ms
- quenching by intracellular components (cells [7]): quenched little by intracellular components
- fluorescence lifetime in cells (cells [7]; in the absence of I^-, n=4): 6.5±0.3 ns
